Calls of active or inactive are those of the source. No cut-off for these calls is given here.
Key:
Quadruplex DNA [1] = test: Binding affinity to human c-Myc G-quadruplex DNA at 2 uM incubated for 2 mins by UV- vis spectrophotometric analysis; assay type: nucleic-acid assay
Quadruplex DNA [2] = test: Binding affinity to human CM22 G-quadruplex DNA at 2 uM incubated for 2 mins by UV- vis spectrophotometric analysis; assay type: nucleic-acid assay
Quadruplex DNA [3] = test: Binding affinity to human Pu27 G-quadruplex DNA at 2 uM incubated for 2 mins by UV- vis spectrophotometric analysis; assay type: nucleic-acid assay
Quadruplex DNA [4] = test: Binding affinity to human Hum24 G-quadruplex DNA at 2 uM incubated for 2 mins by UV- vis spectrophotometric analysis; assay type: nucleic-acid assay
Quadruplex DNA [5] = test: Binding affinity of human G3T3 G-quadruplex DNA at 2 uM incubated for 2 mins by UV- vis spectrophotometric analysis; assay type: nucleic-acid assay
Quadruplex DNA [6] = test: Binding affinity to human Htg-21 G-quadruplex DNA at 2 uM incubated for 2 mins by UV- vis spectrophotometric analysis; assay type: nucleic-acid assay
Quadruplex DNA [7] = test: Binding affinity to human 22AG G-quadruplex DNA at 2 uM incubated for 2 mins by UV- vis spectrophotometric analysis; assay type: nucleic-acid assay
Quadruplex DNA [8] = test: Binding affinity to human EAD G-quadruplex DNA at 2 uM incubated for 2 mins by UV- vis spectrophotometric analysis; assay type: nucleic-acid assay
HeLa = test: Antiproliferative activity against human HeLa cells assessed as reduction in cell viability after 72 hrs by CCK8 assay; assay type: functional
HCT-116 = test: Antiproliferative activity against human HCT116 cells assessed as reduction in cell viability after 72 hrs by CCK8 assay; assay type: functional
MDA-MB-231 = test: Antiproliferative activity against human MDA-MB-231 cells assessed as reduction in cell viability after 72 hrs by CCK8 assay; assay type: functional
HEK-293T = test: Cytotoxicity against human 293T cells assessed as reduction in cell viability after 72 hrs by CCK8 assay; assay type: cell-based
Quadruplex DNA [9] = test: Binding affinity to human c-Myc G-quadruplex DNA assessed as fluorescence intensity at 2 uM by fluorescence spectra analysis; assay type: nucleic-acid assay
Quadruplex DNA [10] = test: Binding affinity to human Htg-21 G-quadruplex DNA assessed as fluorescence intensity at 2 uM by fluorescence spectra analysis; assay type: nucleic-acid assay
Quadruplex DNA [11] = test: Binding affinity to human CM22 G-quadruplex DNA assessed as fluorescence intensity at 2 uM by fluorescence spectra analysis; assay type: nucleic-acid assay
Quadruplex DNA [12] = test: Binding affinity to human 22AG G-quadruplex DNA assessed as fluorescence intensity at 2 uM by fluorescence spectra analysis; assay type: nucleic-acid assay
Quadruplex DNA [13] = test: Binding affinity to human Hum24 G-quadruplex DNA assessed as fluorescence intensity at 2 uM by fluorescence spectra analysis; assay type: nucleic-acid assay
Quadruplex DNA [14] = test: Binding affinity to human G3T3 G-quadruplex DNA assessed as fluorescence intensity at 2 uM by fluorescence spectra analysis; assay type: nucleic-acid assay
Quadruplex DNA [15] = test: Binding affinity to human EAD G-quadruplex DNA assessed as fluorescence intensity at 2 uM by fluorescence spectra analysis; assay type: nucleic-acid assay
Quadruplex DNA [16] = test: Binding affinity to human Pu27 G-quadruplex DNA assessed as fluorescence intensity at 2 uM by fluorescence spectra analysis; assay type: nucleic-acid assay
ssDNA = test: Binding affinity to SS26 DNA (unknown origin) assessed as fluorescence intensity at 2 uM by fluorescence spectra analysis; assay type: nucleic-acid assay
DNA [17] = test: Binding affinity to ds26 DNA (unknown origin) assessed as fluorescence intensity at 2 uM by fluorescence spectra analysis; assay type: nucleic-acid assay
Calf thymus DNA [18] = test: Binding affinity to calf thymus DNA assessed as fluorescence intensity at 2 uM by fluorescence spectra analysis; assay type: nucleic-acid assay; settings: Bos taurus
[19] = system: Poly(dG-dC)oligonucleotide; test: Binding affinity to poly (G-C)7 DNA assessed as fluorescence intensity at 2 uM by fluorescence spectra analysis; assay type: nucleic-acid assay
Quadruplex DNA [20] = test: Binding affinity to human 22AG G-quadruplex DNA by spectrofluorophotometric method; assay type: nucleic-acid assay
Quadruplex DNA [21] = test: Displacement of TO from human G3T3 G-quadruplex DNA at pH 7.4 by spectrofluorophotometric FID assay; assay type: nucleic-acid assay
Quadruplex DNA [22] = test: Binding affinity to human G-Quadruplex DNA assessed as aggregation at 10 uM by TEM analysis; assay type: nucleic-acid assay
Quadruplex DNA [23] = test: Binding affinity to human CM22 G-quadruplex DNA by spectrofluorophotometric method; assay type: nucleic-acid assay
Quadruplex DNA [24] = test: Displacement of TO from human 22AG G-quadruplex DNA at pH 7.4 by spectrofluorophotometric based FID assay; assay type: nucleic-acid assay
Quadruplex DNA [25] = test: Displacement of TO from human CM22 G-quadruplex DNA at pH 7.4 by spectrofluorophotometric FID assay; assay type: nucleic-acid assay
Quadruplex DNA [26] = test: Displacement of TO from human c-Myc G-quadruplex DNA at pH 7.4 by spectrofluorophotometric FID assay; assay type: nucleic-acid assay
Quadruplex DNA [27] = test: Displacement of TO from human Htg 21 G-quadruplex DNA at pH 7.4 by spectrofluorophotometric FID assay; assay type: nucleic-acid assay
Quadruplex DNA [28] = test: Displacement of TO from human Hum 24 G-quadruplex DNA at pH 7.4 by spectrofluorophotometric FID assay; assay type: nucleic-acid assay
Quadruplex DNA [29] = test: Displacement of TO from human Pu 27 G-quadruplex DNA at pH 7.4 by spectrofluorophotometric FID assay; assay type: nucleic-acid assay
Quadruplex DNA [30] = test: Displacement of TO from human EAD G-quadruplex DNA at pH 7.4 by spectrofluorophotometric FID assay; assay type: nucleic-acid assay
DNA [31] = test: Displacement of TO from ds26 DNA (unknown origin) at pH 7.4 by spectrofluorophotometric FID assay; assay type: nucleic-acid assay
Calf thymus DNA [32] = test: Displacement of TO from calf thymus DNA at pH 7.4 by spectrofluorophotometric FID assay; assay type: nucleic-acid assay, Bos taurus
[33] = target: Poly(dG-dC)oligonucleotide; test: Displacement of TO from Polyd(G-C)7 DNA at pH 7.4 by spectrofluorophotometric FID assay; assay type: nucleic-acid assay
Quadruplex DNA [34] = test: Binding affinity to human c-Myc G-quadruplex DNA assessed as inhibition of G4/hemin peroxidase at 1 to 5 uM preincubated for 1 hr followed by hemin addition and further incubated for 1 hr and H2O2 addition and measured after 30 mins by UV spectrophotometric method; assay type: nucleic-acid assay
Quadruplex DNA [35] = test: Binding affinity to human Hum24 G-quadruplex DNA assessed as inhibition of G4/hemin peroxidase at 1 to 5 uM preincubated for 1 hr followed by hemin addition and further incubated for 1 hr and H2O2 addition and measured after 30 mins by UV spectrophotometric method; assay type: nucleic-acid assay
Quadruplex DNA [36] = test: Binding affinity to human 22AG G-quadruplex DNA assessed as inhibition of G4/hemin peroxidase at 1 to 5 uM preincubated for 1 hr followed by hemin addition and further incubated for 1 hr and H2O2 addition and measured after 30 mins by UV spectrophotometric method; assay type: nucleic-acid assay
Quadruplex DNA [37] = test: Binding affinity to G-Quadruplex DNA in human HeLa cells assessed as red fluorescence emission in nucleus at 20 uM after 30 min by DAPI staining based confocal microscopic method; assay type: cell-based

C[n+]1ccccc1/C=C/c1ccc(N2CCN(CCCN3C(=O)c4cccc5cccc(c45)C3=O)CC2)cc1.[I-]
Activity (Quadruplex DNA [1]): inactive | Activity (Quadruplex DNA [2]): inactive | Activity (Quadruplex DNA [3]): inactive | Activity (Quadruplex DNA [4]): inactive | Activity (Quadruplex DNA [5]): inactive | Activity (Quadruplex DNA [6]): inactive | Activity (Quadruplex DNA [7]): inactive | Activity (Quadruplex DNA [8]): inactive | Activity (HeLa): 0.1913 µM | Activity (HCT-116): 0.5566 µM | Activity (MDA-MB-231): 0.1014 µM | Activity (HEK-293T): 1.753 µM | fold change (FC) (Quadruplex DNA [9]): 16 | fold change (FC) (Quadruplex DNA [10]): 700 to 1800 | fold change (FC) (Quadruplex DNA [11]): 700 to 1800 | fold change (FC) (Quadruplex DNA [12]): 700 to 1800 | fold change (FC) (Quadruplex DNA [13]): 700 to 1800 | fold change (FC) (Quadruplex DNA [14]): 700 to 1800 | fold change (FC) (Quadruplex DNA [15]): 700 to 1800 | fold change (FC) (Quadruplex DNA [16]): 700 to 1800 | fold change (FC) (ssDNA): 50 to 300 | fold change (FC) (DNA [17]): 50 to 300 | fold change (FC) (Calf thymus DNA [18]): 50 to 300 | fold change (FC) [19]: 50 to 300

O=c1[nH]cc(F)c(=O)[nH]1 [FLUOROURACIL]
Activity (HeLa): 0.8046 µM | Activity (HCT-116): 1.123 µM | Activity (MDA-MB-231): 0.8615 µM | Activity (HEK-293T): 0.5879 µM

C[n+]1c(/C=C/c2ccc(N3CCN(CCCN4C(=O)c5cccc6cccc(c56)C4=O)CC3)cc2)ccc2c3ccccc3ccc21.[I-]
Activity (Quadruplex DNA [1]): Active | Ka (Quadruplex DNA [20]): 0.27 ×10⁶ /M | DC50 (Quadruplex DNA [21]): 410 nM | Activity (Quadruplex DNA [2]): Active | Activity (Quadruplex DNA [3]): Active | Activity (Quadruplex DNA [4]): Active | Activity (Quadruplex DNA [5]): Active | Activity (Quadruplex DNA [6]): Active | Activity (Quadruplex DNA [7]): Active | Activity (Quadruplex DNA [8]): Active | Activity (Quadruplex DNA [22]): Active | Ka (Quadruplex DNA [23]): 290000 M⁻¹ | DC50 (Quadruplex DNA [24]): 480 nM | DC50 (Quadruplex DNA [25]): 390 nM | DC50 (Quadruplex DNA [26]): 320 nM | DC50 (Quadruplex DNA [27]): 690 nM | DC50 (Quadruplex DNA [28]): 500 nM | DC50 (Quadruplex DNA [29]): 320 nM | DC50 (Quadruplex DNA [30]): 350 nM | DC50 (DNA [31]): 980 nM | DC50 (Calf thymus DNA [32]): 850 nM | DC50 [33]: > 1500 nM | inhibition (Quadruplex DNA [34]): Active | inhibition (Quadruplex DNA [35]): Active | Activity (HeLa): 0.2438 µM | Activity (HCT-116): 0.4764 µM | Activity (MDA-MB-231): 0.1432 µM | inhibition (Quadruplex DNA [36]): Active | Activity (HEK-293T): 0.5372 µM | Activity (Quadruplex DNA [37]): Active | fold change (FC) (Quadruplex DNA [9]): 1800 | fold change (FC) (Quadruplex DNA [10]): 700 to 1800 | fold change (FC) (Quadruplex DNA [11]): 700 to 1800 | fold change (FC) (Quadruplex DNA [12]): 700 to 1800 | fold change (FC) (Quadruplex DNA [13]): 700 to 1800 | fold change (FC) (Quadruplex DNA [14]): 700 to 1800 | fold change (FC) (Quadruplex DNA [15]): 700 to 1800 | fold change (FC) (Quadruplex DNA [16]): 700 to 1800 | fold change (FC) (ssDNA): 50 to 300 | fold change (FC) (DNA [17]): 50 to 300 | fold change (FC) (Calf thymus DNA [18]): 50 to 300 | fold change (FC) [19]: 50 to 300
